Laboratory results published in ChEMBL document CHEMBL1201862, “PubChem BioAssay data set” (2004).
Calls of active or inactive are those of the source.

Columns and labels:
[1] = target: Induced myeloid leukemia cell differentiation protein Mcl-1 (Homo sapiens, UniProt Q07820); format: functional
Protein RecA = target: T1, Protein RecA (Mycobacterium tuberculosis, UniProt P9WHJ3); assay: Fluorescence Cell-Free Homogeneous Dose Retest to Identify Inhibitors of RecA-Intein Splicing Activity. [Related pubchem assays (depositor defined):AID2097, AID2223, AID489010, AID492950]; format: functional
T1 sequence (P9WHJ3 whole entry): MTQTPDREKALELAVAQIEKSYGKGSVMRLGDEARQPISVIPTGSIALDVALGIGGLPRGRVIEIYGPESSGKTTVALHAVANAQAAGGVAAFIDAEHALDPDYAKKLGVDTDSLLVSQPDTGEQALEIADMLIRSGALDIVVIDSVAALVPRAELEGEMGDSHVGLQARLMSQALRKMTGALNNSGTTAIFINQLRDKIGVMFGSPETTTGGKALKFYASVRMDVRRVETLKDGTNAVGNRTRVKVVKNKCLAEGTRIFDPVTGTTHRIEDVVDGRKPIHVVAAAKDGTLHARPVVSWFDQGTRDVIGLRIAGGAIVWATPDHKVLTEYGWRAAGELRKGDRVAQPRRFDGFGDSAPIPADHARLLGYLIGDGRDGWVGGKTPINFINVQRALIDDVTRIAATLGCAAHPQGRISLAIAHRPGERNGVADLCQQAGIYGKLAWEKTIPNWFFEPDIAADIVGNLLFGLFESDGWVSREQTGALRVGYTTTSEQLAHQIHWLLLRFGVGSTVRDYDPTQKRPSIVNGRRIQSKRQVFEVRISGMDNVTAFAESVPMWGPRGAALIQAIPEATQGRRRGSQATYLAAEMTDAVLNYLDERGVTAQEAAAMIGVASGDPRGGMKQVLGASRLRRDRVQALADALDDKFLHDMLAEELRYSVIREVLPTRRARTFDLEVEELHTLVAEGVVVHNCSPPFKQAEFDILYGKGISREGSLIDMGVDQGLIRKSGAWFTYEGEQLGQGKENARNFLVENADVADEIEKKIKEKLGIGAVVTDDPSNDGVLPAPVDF

[2] = target: Multidrug resistance protein CDR2 (Candida albicans (strain SC5314 / ATCC MYA-2876) (Yeast), UniProt P78595); assay: inhibition of Nile Red efflux via Candida CDR2 – S. cerevisiae AD1-8u, singleplex, Cherry Pick1 hits, dose response (AID 588604); format: functional
Beta-galactosidase = Beta-galactosidase (Escherichia coli, UniProt Q8VNN2); assay: detection-enzyme interference by beta-gal modulators – biochemical, E. coli enzyme, set 3, artefact control for CCR6 antagonist project, dose response (AID 504712); format: functional
[3] = target: T2, Replicative DNA helicase DnaB (Mycobacterium tuberculosis, UniProt P9WMR3); assay: DnaB intein splicing inhibitors, dose response, biochemical, cell-free fluorescence (AID 449749); format: functional
T2 sequence (P9WMR3 whole entry): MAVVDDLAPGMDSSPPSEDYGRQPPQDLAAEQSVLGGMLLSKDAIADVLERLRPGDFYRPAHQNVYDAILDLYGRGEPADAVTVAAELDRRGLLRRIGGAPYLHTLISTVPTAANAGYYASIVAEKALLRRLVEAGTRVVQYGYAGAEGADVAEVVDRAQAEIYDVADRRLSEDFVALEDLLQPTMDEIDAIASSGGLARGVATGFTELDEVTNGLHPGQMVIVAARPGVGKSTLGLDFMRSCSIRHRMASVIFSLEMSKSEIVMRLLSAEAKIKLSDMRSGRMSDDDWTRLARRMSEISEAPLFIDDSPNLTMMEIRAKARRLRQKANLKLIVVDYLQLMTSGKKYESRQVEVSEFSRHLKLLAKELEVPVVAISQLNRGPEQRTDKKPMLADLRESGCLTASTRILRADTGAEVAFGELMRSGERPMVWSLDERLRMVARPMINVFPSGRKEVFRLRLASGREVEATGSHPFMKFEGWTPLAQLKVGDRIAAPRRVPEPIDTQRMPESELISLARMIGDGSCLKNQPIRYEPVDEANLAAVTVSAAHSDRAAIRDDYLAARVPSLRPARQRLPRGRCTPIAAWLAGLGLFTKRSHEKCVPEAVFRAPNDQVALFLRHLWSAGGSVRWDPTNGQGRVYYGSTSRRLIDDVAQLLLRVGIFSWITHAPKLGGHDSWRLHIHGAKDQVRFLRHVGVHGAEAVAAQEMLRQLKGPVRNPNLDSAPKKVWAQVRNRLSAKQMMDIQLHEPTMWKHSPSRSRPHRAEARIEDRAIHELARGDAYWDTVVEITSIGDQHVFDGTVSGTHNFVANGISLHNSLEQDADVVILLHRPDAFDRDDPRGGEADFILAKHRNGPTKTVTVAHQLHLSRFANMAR

[4] = target: T3, Heat shock factor protein 1 (Mus musculus, UniProt P38532); assay: decrease of HSF1-responsive luciferase luminescence – cell-based, NIH3T3, dose retest, confirmation (AID 2382); format: functional;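 further: NIH3T3 fibroblasts with HSF1-driven luciferase reporter stressed by proteasome inhibitor MG132; luminescence from HSF1-driven luciferase expression after 8 hours of MG132 stress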
T3 sequence (P38532 whole entry): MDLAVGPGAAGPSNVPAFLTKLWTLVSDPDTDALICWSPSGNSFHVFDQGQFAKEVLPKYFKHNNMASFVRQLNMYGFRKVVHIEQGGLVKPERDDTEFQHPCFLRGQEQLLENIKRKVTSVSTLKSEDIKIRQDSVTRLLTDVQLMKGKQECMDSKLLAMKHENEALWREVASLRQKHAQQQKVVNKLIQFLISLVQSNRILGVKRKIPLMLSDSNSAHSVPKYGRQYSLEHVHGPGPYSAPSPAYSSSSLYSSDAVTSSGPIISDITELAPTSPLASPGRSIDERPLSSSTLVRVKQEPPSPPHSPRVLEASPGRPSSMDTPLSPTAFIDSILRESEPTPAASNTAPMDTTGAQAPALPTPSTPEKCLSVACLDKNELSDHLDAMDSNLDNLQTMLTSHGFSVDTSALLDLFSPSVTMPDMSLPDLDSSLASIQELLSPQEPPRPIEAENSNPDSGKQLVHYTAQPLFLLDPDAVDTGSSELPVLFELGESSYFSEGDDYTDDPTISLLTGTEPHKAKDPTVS

[5] = target: C-C chemokine receptor type 6 (Homo sapiens, UniProt P51684); assay: antagonism of CCR6 beta-arrestin recruitment – cell-based, luminescent beta-arrestin readout, dose response (AID 504728); format: functional
Genome polyprotein = Genome polyprotein (dengue virus type 2, UniProt P29990); assay: flavivirus cap methylation enzyme inhibition – biochemical, confirmation dose response, primary screen (AID 588689); format: functional
[6] = target: T4, Mitochondrial peptide methionine sulfoxide reductase (Bos taurus, UniProt P54149); assay: Absorbance-based biochemical high throughput dose response assay for activators of Methionine sulfoxide reductase A (MsrA).; format: functional
T4 sequence (P54149 whole entry): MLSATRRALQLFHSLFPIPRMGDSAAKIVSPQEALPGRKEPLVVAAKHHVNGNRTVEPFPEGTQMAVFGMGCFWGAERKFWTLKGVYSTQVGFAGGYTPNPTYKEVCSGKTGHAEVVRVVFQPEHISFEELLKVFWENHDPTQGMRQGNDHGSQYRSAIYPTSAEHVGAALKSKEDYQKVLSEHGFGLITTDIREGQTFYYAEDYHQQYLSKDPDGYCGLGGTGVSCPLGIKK

Streptokinase A = target: T5, Streptokinase A (Streptococcus pyogenes serotype M1, UniProt P10520); assay: viability-normalized secreted streptokinase activity reduction – plasminogen activation absorbance, OD405, dose response (AID 1914); format: functional, Streptococcus pyogenes M1 GAS;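 further: secreted streptokinase activity via plasminogen activation per viability signal from cell pellet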
T5 sequence (P10520 whole entry): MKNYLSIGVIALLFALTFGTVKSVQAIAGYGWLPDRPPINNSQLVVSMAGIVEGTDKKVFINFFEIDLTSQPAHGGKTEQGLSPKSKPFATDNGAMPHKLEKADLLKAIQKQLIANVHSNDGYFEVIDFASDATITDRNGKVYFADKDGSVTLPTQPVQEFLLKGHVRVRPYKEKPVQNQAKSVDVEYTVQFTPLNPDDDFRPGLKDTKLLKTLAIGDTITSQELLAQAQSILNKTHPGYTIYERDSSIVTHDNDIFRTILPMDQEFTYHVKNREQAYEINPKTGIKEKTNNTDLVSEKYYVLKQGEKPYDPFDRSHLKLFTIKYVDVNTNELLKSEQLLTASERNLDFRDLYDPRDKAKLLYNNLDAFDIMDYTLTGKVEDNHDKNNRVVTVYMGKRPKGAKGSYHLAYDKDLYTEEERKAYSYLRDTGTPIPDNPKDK

Sequence of Induced myeloid leukemia cell differentiation protein Mcl-1 (Q07820 whole entry): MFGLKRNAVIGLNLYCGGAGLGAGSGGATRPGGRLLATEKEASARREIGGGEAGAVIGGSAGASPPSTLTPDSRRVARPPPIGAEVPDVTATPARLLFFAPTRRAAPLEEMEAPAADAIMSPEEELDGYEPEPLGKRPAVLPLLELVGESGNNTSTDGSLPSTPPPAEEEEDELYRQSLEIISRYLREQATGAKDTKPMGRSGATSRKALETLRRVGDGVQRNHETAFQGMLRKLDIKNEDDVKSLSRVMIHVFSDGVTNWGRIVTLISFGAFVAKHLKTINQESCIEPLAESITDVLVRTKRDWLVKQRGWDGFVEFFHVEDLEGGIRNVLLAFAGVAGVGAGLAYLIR
Sequence of Multidrug resistance protein CDR2 (P78595 whole entry): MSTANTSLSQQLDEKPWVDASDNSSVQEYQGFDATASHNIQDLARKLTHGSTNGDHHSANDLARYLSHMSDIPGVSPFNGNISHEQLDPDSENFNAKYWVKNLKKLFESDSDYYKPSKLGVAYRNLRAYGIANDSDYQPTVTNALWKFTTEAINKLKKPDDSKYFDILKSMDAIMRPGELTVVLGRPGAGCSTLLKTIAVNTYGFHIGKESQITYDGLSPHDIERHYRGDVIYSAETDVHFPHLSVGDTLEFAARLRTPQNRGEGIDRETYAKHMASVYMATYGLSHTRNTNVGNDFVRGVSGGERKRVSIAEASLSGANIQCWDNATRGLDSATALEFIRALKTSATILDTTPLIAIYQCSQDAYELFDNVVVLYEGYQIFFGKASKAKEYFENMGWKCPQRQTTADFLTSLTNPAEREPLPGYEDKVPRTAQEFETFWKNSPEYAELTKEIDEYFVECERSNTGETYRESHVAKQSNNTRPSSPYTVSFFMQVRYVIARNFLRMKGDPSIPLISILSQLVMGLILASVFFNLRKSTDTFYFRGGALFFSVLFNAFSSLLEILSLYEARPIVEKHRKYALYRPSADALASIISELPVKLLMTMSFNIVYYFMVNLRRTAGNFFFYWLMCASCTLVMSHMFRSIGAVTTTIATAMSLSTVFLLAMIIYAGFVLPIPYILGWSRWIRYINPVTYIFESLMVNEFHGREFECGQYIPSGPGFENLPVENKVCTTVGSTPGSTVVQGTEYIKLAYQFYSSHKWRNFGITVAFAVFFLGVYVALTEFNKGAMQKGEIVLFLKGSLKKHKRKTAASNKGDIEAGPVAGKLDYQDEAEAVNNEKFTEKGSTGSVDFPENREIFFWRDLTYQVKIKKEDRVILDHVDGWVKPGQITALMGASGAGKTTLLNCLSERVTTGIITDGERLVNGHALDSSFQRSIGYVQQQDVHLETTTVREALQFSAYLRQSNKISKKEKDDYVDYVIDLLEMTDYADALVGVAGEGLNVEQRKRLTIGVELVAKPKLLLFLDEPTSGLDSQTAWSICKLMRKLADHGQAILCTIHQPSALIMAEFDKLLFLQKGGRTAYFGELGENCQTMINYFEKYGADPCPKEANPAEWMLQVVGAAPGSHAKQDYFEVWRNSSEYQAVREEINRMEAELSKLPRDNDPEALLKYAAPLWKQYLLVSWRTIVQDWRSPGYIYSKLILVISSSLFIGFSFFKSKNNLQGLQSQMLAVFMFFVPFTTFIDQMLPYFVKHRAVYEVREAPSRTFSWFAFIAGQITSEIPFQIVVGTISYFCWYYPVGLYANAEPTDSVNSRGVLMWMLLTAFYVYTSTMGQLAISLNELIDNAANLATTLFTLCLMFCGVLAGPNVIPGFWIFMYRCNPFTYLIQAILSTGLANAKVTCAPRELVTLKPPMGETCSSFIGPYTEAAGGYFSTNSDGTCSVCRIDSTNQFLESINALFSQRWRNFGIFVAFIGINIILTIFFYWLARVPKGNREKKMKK
Sequence of Beta-galactosidase (Q8VNN2 whole entry): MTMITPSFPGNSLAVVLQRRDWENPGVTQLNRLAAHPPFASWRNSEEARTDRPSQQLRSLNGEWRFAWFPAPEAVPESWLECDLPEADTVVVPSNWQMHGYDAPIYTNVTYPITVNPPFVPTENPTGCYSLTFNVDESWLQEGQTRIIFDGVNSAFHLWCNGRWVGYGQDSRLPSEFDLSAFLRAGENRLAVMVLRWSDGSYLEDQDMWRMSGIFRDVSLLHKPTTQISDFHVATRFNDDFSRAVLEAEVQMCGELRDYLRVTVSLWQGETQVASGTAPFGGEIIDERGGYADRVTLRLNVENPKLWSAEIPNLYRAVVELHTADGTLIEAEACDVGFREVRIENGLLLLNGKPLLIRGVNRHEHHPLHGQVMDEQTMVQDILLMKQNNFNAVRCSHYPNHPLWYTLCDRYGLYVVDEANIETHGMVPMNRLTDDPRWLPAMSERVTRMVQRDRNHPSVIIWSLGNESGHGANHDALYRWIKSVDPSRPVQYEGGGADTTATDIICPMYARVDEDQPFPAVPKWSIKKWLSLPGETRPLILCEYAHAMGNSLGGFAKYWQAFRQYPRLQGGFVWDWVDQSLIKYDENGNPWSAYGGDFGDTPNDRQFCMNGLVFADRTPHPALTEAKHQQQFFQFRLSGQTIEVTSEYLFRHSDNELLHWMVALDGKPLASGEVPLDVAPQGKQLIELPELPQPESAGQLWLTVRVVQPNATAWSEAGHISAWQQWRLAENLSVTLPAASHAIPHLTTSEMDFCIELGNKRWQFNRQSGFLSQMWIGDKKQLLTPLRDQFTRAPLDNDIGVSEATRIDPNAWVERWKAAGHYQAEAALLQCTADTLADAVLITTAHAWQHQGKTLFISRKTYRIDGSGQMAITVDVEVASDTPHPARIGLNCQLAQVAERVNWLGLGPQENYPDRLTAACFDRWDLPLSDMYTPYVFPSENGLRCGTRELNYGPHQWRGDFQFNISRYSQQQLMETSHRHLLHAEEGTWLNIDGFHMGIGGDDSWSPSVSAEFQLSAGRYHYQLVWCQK
Sequence of C-C chemokine receptor type 6 (P51684 whole entry): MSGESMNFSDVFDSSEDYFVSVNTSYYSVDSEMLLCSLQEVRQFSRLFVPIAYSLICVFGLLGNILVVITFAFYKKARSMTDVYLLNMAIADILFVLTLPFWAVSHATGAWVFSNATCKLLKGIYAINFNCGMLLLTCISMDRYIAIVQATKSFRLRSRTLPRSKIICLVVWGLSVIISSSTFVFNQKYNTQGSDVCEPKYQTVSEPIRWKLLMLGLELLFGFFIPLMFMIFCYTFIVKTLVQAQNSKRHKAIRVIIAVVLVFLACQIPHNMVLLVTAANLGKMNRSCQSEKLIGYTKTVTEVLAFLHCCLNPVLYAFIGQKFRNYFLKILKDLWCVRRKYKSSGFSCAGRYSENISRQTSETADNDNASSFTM
Sequence of Genome polyprotein (P29990 2492-3391 limits assumed): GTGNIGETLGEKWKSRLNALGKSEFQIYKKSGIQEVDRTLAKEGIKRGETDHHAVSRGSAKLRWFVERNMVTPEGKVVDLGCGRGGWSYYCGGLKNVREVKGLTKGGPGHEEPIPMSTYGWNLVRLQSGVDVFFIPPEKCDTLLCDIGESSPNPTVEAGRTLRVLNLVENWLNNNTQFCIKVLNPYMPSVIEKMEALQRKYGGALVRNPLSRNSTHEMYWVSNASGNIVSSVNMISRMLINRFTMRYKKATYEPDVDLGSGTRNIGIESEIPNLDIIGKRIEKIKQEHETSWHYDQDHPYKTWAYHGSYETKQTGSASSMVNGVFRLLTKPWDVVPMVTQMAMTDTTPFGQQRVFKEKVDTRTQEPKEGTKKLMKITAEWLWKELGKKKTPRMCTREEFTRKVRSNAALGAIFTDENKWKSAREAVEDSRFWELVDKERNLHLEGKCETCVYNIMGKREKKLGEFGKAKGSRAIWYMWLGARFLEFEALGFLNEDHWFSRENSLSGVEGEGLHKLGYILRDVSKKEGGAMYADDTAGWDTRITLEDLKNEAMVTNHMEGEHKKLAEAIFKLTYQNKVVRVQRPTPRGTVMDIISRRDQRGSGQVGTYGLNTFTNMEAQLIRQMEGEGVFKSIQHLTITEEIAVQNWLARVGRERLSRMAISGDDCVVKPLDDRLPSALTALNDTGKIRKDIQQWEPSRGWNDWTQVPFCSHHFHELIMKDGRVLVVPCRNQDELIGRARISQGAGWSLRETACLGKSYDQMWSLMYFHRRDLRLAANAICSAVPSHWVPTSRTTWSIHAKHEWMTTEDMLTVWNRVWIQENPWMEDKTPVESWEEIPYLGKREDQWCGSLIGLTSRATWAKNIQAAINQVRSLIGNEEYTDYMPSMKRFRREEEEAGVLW

O=C1C(Cl)=C(Nc2ccc3cn[nH]c3c2)C(=O)c2ccccc21
active: IC50 [1] 6.25 µM | EC50 (Protein RecA) 0.955 µM | EC50 [2] 40.6 µM | AC50 [3] 1.65 µM | EC50 [4] 5.42 µM | IC50 (Genome polyprotein) 18.7 µM | EC50 (Streptokinase A) 6.22 µM
inactive: IC50 (Beta-galactosidase) > 66.6 µM | IC50 [5] > 66.6 µM | EC50 [6] > 104 µM
